Results from patent US20230085307A1, “PYRIDAZINONE COMPOUND AND HERBICIDE” (NISSAN CHEMICAL CORPORATION, priority 2019, published 2023).

What was measured:
green foxtail [1] = test: Test Example 5: herbicidal effect by foliage application, plastic box (Table 20, symbol G); type: in vivo, green foxtail (Setaria viridis); details: foliage application, 320 g/ha
Procedure, shortened: (§1)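 Plants sown in sterilized diluvial soil and grown 14 days in a greenhouse at 25° C to 30° C, then sprayed on the foliage with the compound's emulsion diluted in water to a predetermined herbicide amount. Injury to weeds and crops scored three weeks after application on a visual rating scale.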

Italian ryegrass [2] = test: Test Example 5: herbicidal effect by foliage application, plastic box (Table 20, symbol K); type: in vivo, Italian ryegrass (Lolium multiflorum); details: foliage application, 320 g/ha
Procedure, shortened: as §1

rice flat sedge = test: Test Example 3: herbicidal effect by foliage application, Wagner pot (Table 18, symbol E); type: in vivo, rice flat sedge (Cyperus iria); details: 320 g/ha
Procedure, shortened: (§2)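 Plants were sown in alluvial soil held under 0.1–0.5 cm standing water and grown 14 days in a greenhouse at 25–30 °C. An emulsifiable formulation, water-diluted to the set dose, was then sprayed onto the foliage, and effects were scored three weeks later using previously defined criteria.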

lambsquarters [3] = test: Test Example 4: herbicidal effect by soil treatment (Table 19, symbol O); type: in vivo, lambsquarters (Chenopodium album); details: amount of applied herbicide 320 g/ha
Procedure, shortened: (§3)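 Seeds were sown in sterilized diluvial soil and covered with about 1.5 cm of soil. An emulsion formulation diluted with water to a predetermined herbicide amount was sprayed evenly onto the soil surface. Plants grew in a greenhouse at 25° C. to 30° C., and the effect was scored three weeks after application using criteria from an earlier test.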

velvetleaf [4] = test: Test Example 4: herbicidal effect by soil treatment (Table 19, symbol M); type: in vivo, velvetleaf (Abutilon theophrasti); details: amount of applied herbicide 320 g/ha
Procedure, shortened: as §3

wild oat [5] = test: Test Example 5: herbicidal effect by foliage application, plastic box (Table 20, symbol I); type: in vivo, wild oat (Avena fatua); details: foliage application, 320 g/ha
Procedure, shortened: as §1

barnyard grass [6] = test: Test Example 3: herbicidal effect by foliage application, Wagner pot (Table 18, symbol H); type: in vivo, barnyard grass (Echinochloa crus-galli); details: 320 g/ha
Procedure, shortened: as §2

redroot pigweed [7] = test: Test Example 5: herbicidal effect by foliage application, plastic box (Table 20, symbol N); type: in vivo, redroot pigweed (Amaranthus retroflexus); details: foliage application, 320 g/ha
Procedure, shortened: as §1

southern crabgrass [8] = test: Test Example 4: herbicidal effect by soil treatment (Table 19, symbol F); type: in vivo, southern crabgrass (Digitaria ciliaris); details: amount of applied herbicide 320 g/ha
Procedure, shortened: as §3

Chinese sprangletop = test: Test Example 3: herbicidal effect by foliage application, Wagner pot (Table 18, symbol D); type: in vivo, chinese sprangletop (Leptochloa chinensis); details: 320 g/ha
Procedure, shortened: as §2

southern crabgrass [9] = test: Test Example 5: herbicidal effect by foliage application, plastic box (Table 20, symbol F); type: in vivo, southern crabgrass (Digitaria ciliaris); details: foliage application, 320 g/ha
Procedure, shortened: as §1

chickweed [10] = test: Test Example 5: herbicidal effect by foliage application, plastic box (Table 20, symbol P); type: in vivo, common chickweed (Stellaria media); details: foliage application, 320 g/ha
Procedure, shortened: as §1

Italian ryegrass [11] = test: Test Example 4: herbicidal effect by soil treatment (Table 19, symbol K); type: in vivo, Italian ryegrass (Lolium multiflorum); details: amount of applied herbicide 320 g/ha
Procedure, shortened: as §3

windgrass [12] = test: Test Example 5: herbicidal effect by foliage application, plastic box (Table 20, symbol L); type: in vivo, windgrass (Apera spica-venti); details: foliage application, 320 g/ha
Procedure, shortened: as §1

persian speedwell [13] = test: Test Example 4: herbicidal effect by soil treatment (Table 19, symbol R); type: in vivo, Persian speedwell (Veronica persica); details: amount of applied herbicide 320 g/ha
Procedure, shortened: as §3

lambsquarters [14] = test: Test Example 5: herbicidal effect by foliage application, plastic box (Table 20, symbol O); type: in vivo, lambsquarters (Chenopodium album); details: foliage application, 320 g/ha
Procedure, shortened: as §1

windgrass [15] = test: Test Example 4: herbicidal effect by soil treatment (Table 19, symbol L); type: in vivo, windgrass (Apera spica-venti); details: amount of applied herbicide 320 g/ha
Procedure, shortened: as §3

blackgrass [16] = test: Test Example 5: herbicidal effect by foliage application, plastic box (Table 20, symbol J); type: in vivo, blackgrass (Alopecurus myosuroides); details: foliage application, 320 g/ha
Procedure, shortened: as §1

barnyard grass [17] = test: Test Example 5: herbicidal effect by foliage application, plastic box (Table 20, symbol H); type: in vivo, barnyard grass (Echinochloa crus-galli); details: foliage application, 320 g/ha
Procedure, shortened: as §1

green foxtail [18] = test: Test Example 4: herbicidal effect by soil treatment (Table 19, symbol G); type: in vivo, green foxtail (Setaria viridis); details: amount of applied herbicide 320 g/ha
Procedure, shortened: as §3

wild oat [19] = test: Test Example 4: herbicidal effect by soil treatment (Table 19, symbol I); type: in vivo, wild oat (Avena fatua); details: amount of applied herbicide 320 g/ha
Procedure, shortened: as §3

false cleavers = test: Test Example 5: herbicidal effect by foliage application, plastic box (Table 20, symbol Q); type: in vivo, false cleavers (Galium spurium); details: foliage application, 320 g/ha
Procedure, shortened: as §1

velvetleaf [20] = test: Test Example 5: herbicidal effect by foliage application, plastic box (Table 20, symbol M); type: in vivo, velvetleaf (Abutilon theophrasti); details: foliage application, 320 g/ha
Procedure, shortened: as §1

barnyard grass [21] = test: Test Example 4: herbicidal effect by soil treatment (Table 19, symbol H); type: in vivo, barnyard grass (Echinochloa crus-galli); details: amount of applied herbicide 320 g/ha
Procedure, shortened: as §3

redroot pigweed [22] = test: Test Example 4: herbicidal effect by soil treatment (Table 19, symbol N); type: in vivo, redroot pigweed (Amaranthus retroflexus); details: amount of applied herbicide 320 g/ha
Procedure, shortened: as §3

blackgrass [23] = test: Test Example 4: herbicidal effect by soil treatment (Table 19, symbol J); type: in vivo, blackgrass (Alopecurus myosuroides); details: amount of applied herbicide 320 g/ha
Procedure, shortened: as §3

chickweed [24] = test: Test Example 4: herbicidal effect by soil treatment (Table 19, symbol P); type: in vivo, common chickweed (Stellaria media); details: amount of applied herbicide 320 g/ha
Procedure, shortened: as §3

persian speedwell [25] = test: Test Example 5: herbicidal effect by foliage application, plastic box (Table 20, symbol R); type: in vivo, Persian speedwell (Veronica persica); details: foliage application, 320 g/ha
Procedure, shortened: as §1

[26] = evaluated three weeks after application

CCCC(=O)Oc1c(C)nn(C)c(=O)c1-c1c(-c2ccc(C)c(C)c2)sc2ccccc12 [1-066]
herbicidal effect grade, G: green foxtail (green foxtail [1]; three weeks after application): 3 (Herbicidal rate of 40% or more and less than 70%) | herbicidal effect grade, K: Italian ryegrass (Italian ryegrass [2]; three weeks after application): 0 (Herbicidal rate of 5% or less (almost no effect)) | herbicidal effect on E (rice flat sedge), rating 0-5 (rice flat sedge): 5 (Herbicidal rate of 90% or more (almost completely withered)) | herbicidal effect rating, O: lambsquarters (lambsquarters [3]): 0 (Herbicidal rate of 5% or less (almost no effect)) | herbicidal effect rating, M: velvetleaf (velvetleaf [4]): 0 (Herbicidal rate of 5% or less (almost no effect)) | herbicidal effect grade, I: wild oat (wild oat [5]; three weeks after application): 1 (Herbicidal rate of 5% or more and less than 20%) | herbicidal effect on H (barnyard grass), rating 0-5 (barnyard grass [6]): 2 (Herbicidal rate of 20% or more and less than 40%) | herbicidal effect grade, N: redroot pigweed (redroot pigweed [7]; three weeks after application): 4 (Herbicidal rate of 70% or more and less than 90%) | herbicidal effect rating, F: southern crabgrass (southern crabgrass [8]): 0 (Herbicidal rate of 5% or less (almost no effect)) | herbicidal effect on D (Chinese sprangletop), rating 0-5 (Chinese sprangletop): 0 (Herbicidal rate of 5% or less (almost no effect)) | herbicidal effect grade, F: southern crabgrass (southern crabgrass [9]; three weeks after application): 2 (Herbicidal rate of 20% or more and less than 40%) | herbicidal effect grade, P: chickweed (chickweed [10]; three weeks after application): 5 (Herbicidal rate of 90% or more (almost completely withered)) | herbicidal effect rating, K: Italian ryegrass (Italian ryegrass [11]): 0 (Herbicidal rate of 5% or less (almost no effect)) | herbicidal effect grade, L: windgrass (windgrass [12]; three weeks after application): 0 (Herbicidal rate of 5% or less (almost no effect)) | herbicidal effect rating, R: persian speedwell (persian speedwell [13]): 4 (Herbicidal rate of 70% or more and less than 90%) | herbicidal effect grade, O: lambsquarters (lambsquarters [14]; three weeks after application): 0 (Herbicidal rate of 5% or less (almost no effect)) | herbicidal effect rating, L: windgrass (windgrass [15]): 0 (Herbicidal rate of 5% or less (almost no effect)) | herbicidal effect grade, J: blackgrass (blackgrass [16]; three weeks after application): 0 (Herbicidal rate of 5% or less (almost no effect)) | herbicidal effect grade, H: barnyard grass (barnyard grass [17]; three weeks after application): 2 (Herbicidal rate of 20% or more and less than 40%) | herbicidal effect rating, G: green foxtail (green foxtail [18]): 0 (Herbicidal rate of 5% or less (almost no effect)) | herbicidal effect rating, I: wild oat (wild oat [19]): 0 (Herbicidal rate of 5% or less (almost no effect)) | herbicidal effect grade, Q: false cleavers (false cleavers; three weeks after application): 2 (Herbicidal rate of 20% or more and less than 40%) | herbicidal effect grade, M: velvetleaf (velvetleaf [20]; three weeks after application): 4 (Herbicidal rate of 70% or more and less than 90%) | herbicidal effect rating, H: barnyard grass (barnyard grass [21]): 0 (Herbicidal rate of 5% or less (almost no effect)) | herbicidal effect rating, N: redroot pigweed (redroot pigweed [22]): 0 (Herbicidal rate of 5% or less (almost no effect)) | herbicidal effect rating, J: blackgrass (blackgrass [23]): 0 (Herbicidal rate of 5% or less (almost no effect)) | herbicidal effect rating, P: chickweed (chickweed [24]): 2 (Herbicidal rate of 20% or more and less than 40%) | herbicidal effect grade, R: persian speedwell (persian speedwell [25]; three weeks after application): 5 (Herbicidal rate of 90% or more (almost completely withered))

COc1cc(F)ccc1-c1sc2ccc(-c3ccoc3)cc2c1-c1c(O)c(C)nn(C)c1=O [2-170]
herbicidal effect on G: green foxtail (criteria 0-5) (green foxtail [1]; [26]): 0 (Herbicidal rate of 5% or less (almost no effect)) | herbicidal effect on K: Italian ryegrass (criteria 0-5) (Italian ryegrass [2]; [26]): 0 (Herbicidal rate of 5% or less (almost no effect)) | O: lambsquarters, herbicidal effect rating (lambsquarters [3]): 2 (Herbicidal rate of 20% or more and less than 40%) | M: velvetleaf, herbicidal effect rating (velvetleaf [4]): 0 (Herbicidal rate of 5% or less (almost no effect)) | herbicidal effect on I: wild oat (criteria 0-5) (wild oat [5]; [26]): 0 (Herbicidal rate of 5% or less (almost no effect)) | herbicidal effect on N: redroot pigweed (criteria 0-5) (redroot pigweed [7]; [26]): 3 (Herbicidal rate of 40% or more and less than 70%) | F: southern crabgrass, herbicidal effect rating (southern crabgrass [8]): 3 (Herbicidal rate of 40% or more and less than 70%) | herbicidal effect on F: southern crabgrass (criteria 0-5) (southern crabgrass [9]; [26]): 1 (Herbicidal rate of 5% or more and less than 20%) | herbicidal effect on P: chickweed (criteria 0-5) (chickweed [10]; [26]): 5 (Herbicidal rate of 90% or more (almost completely withered)) | K: Italian ryegrass, herbicidal effect rating (Italian ryegrass [11]): 0 (Herbicidal rate of 5% or less (almost no effect)) | herbicidal effect on L: windgrass (criteria 0-5) (windgrass [12]; [26]): 0 (Herbicidal rate of 5% or less (almost no effect)) | R: persian speedwell, herbicidal effect rating (persian speedwell [13]): 0 (Herbicidal rate of 5% or less (almost no effect)) | herbicidal effect on O: lambsquarters (criteria 0-5) (lambsquarters [14]; [26]): 3 (Herbicidal rate of 40% or more and less than 70%) | L: windgrass, herbicidal effect rating (windgrass [15]): 0 (Herbicidal rate of 5% or less (almost no effect)) | herbicidal effect on J: blackgrass (criteria 0-5) (blackgrass [16]; [26]): 0 (Herbicidal rate of 5% or less (almost no effect)) | herbicidal effect on H: barnyard grass (criteria 0-5) (barnyard grass [17]; [26]): 0 (Herbicidal rate of 5% or less (almost no effect)) | G: green foxtail, herbicidal effect rating (green foxtail [18]): 0 (Herbicidal rate of 5% or less (almost no effect)) | I: wild oat, herbicidal effect rating (wild oat [19]): 0 (Herbicidal rate of 5% or less (almost no effect)) | herbicidal effect on Q: false cleavers (criteria 0-5) (false cleavers; [26]): 0 (Herbicidal rate of 5% or less (almost no effect)) | herbicidal effect on M: velvetleaf (criteria 0-5) (velvetleaf [20]; [26]): 3 (Herbicidal rate of 40% or more and less than 70%) | H: barnyard grass, herbicidal effect rating (barnyard grass [21]): 0 (Herbicidal rate of 5% or less (almost no effect)) | N: redroot pigweed, herbicidal effect rating (redroot pigweed [22]): 0 (Herbicidal rate of 5% or less (almost no effect)) | J: blackgrass, herbicidal effect rating (blackgrass [23]): 0 (Herbicidal rate of 5% or less (almost no effect)) | P: chickweed, herbicidal effect rating (chickweed [24]): 0 (Herbicidal rate of 5% or less (almost no effect)) | herbicidal effect on R: persian speedwell (criteria 0-5) (persian speedwell [25]; [26]): 1 (Herbicidal rate of 5% or more and less than 20%)
